Results reported in US9206186B2, “2-phenoxy- and 2-phenylsulfonamide derivatives with CCR3 antagonistic activity for the treatment of inflammatory or immunological disorders” (AXIKIN PHARMACEUTICALS, INC., priority 2003, dated 2015).
Counter-ions that a name gives are not always drawn.

Key:
Human CCR3 = biological target: T1, Human CCR3 (Homo sapiens, UniProt P51677); experiment: Receptor binding assay (RBA), [125I]-eotaxin on human CCR3-transformed K562 cells; settings: compounds of about 40 to 90% purity, read-out: Activity grade CCR3
T1 construct: The cloned CCR3 cDNA was constructed with pcDNA3 vector and transfected into a K562 cell line; expressed in transfected cells
T1 sequence (P51677 1-355): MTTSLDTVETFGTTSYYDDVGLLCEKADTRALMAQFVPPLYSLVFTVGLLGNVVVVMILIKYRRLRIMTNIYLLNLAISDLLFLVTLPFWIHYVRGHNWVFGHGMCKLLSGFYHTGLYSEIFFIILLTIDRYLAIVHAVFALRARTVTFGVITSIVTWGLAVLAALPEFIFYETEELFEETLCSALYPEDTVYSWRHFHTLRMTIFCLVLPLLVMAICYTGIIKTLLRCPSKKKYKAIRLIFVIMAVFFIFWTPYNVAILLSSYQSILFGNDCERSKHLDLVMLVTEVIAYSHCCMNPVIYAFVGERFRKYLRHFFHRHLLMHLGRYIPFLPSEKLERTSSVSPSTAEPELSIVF
Experimental: [Determination of IC50 Values of Compounds in Receptor Binding Assay]
• Human CCR3-transformed K562 cells were used. The cloned CCR3 cDNA was constructed with pcDNA3 vector and transfected into a K562 cell line. The human CCR3-transformed K562 cells were maintained in RPMI-1640 (Cat.#22400-089, Life Technologies) supplemented with 10% FCS (Cat.#A-1115-L, Hyclone), 55 μM 2-mercaptoethanol (Cat.#21985-023, Life Technologies), 1 mM sodium pyruvate (Cat.#11360-070, Life Technologies), 100 units/ml of penicillin G and 100 μg/ml of streptomycin (Cat.#15140-122, Life Technologies), and 0.4 mg/ml of Geneticin (Cat.#10131-035, Life Technologies) (hereinafter called “culture medium”). Before the receptor binding assay, cells were pretreated with 5 mM sodium butyrate (Cat.#193-01522, Wako)-containing the culture medium (2×10^5 cells/ml) for 20-24 hours to increase the expression of CCR3. (2) Receptor Binding Assay • Butyrate-pretreated cells, suspended in binding buffer (25 mM HEPES pH 7.6, 1 mM CaCl2, 5 mM MgCl2, 0.5% BSA, 0.1% NaN3) at a cell density of 2×10^6 cells/ml, were added into 60 μl/well in the 96-well round bottom polypropylene plate (Cat.#3365, Costar). Compounds, diluted with the binding buffer (4-times higher concentration of the final concentration), were added into 30 μl/well in the polypropylene plate. [^125I]-labeled human eotaxin (Cat.#IM290, Amersham Pharmacia Biotech), diluted with the binding buffer at the concentration of 0.4 nM (final concentration; 0.1 nM), was added into 30 μl/well in the polypropylene plate. Total 120 μl/well of binding reaction mixture (60 μl/well of cell suspension, 30 μl/well of compound solution, and 30 μl/well of [^125I]-labeled eotaxin) were incubated in the polypropylene plate for 1 hour at room temperature after the incubation, 100 μl/well of the reaction mixture was transferred to a filtration plate (Cat.#MAFB-N0B, Millipore), and washed with the washing buffer (25 mM HEPES pH 7.6, 1 mM CaCl2, 5 mM MgCl2, 0.5% BSA, 0.1% NaN3, 0.5 M NaCl) twice. The 96-well filtration plate was pretreated with 100 μl/well of 0.5% polyethylenimine (Cat.#P-3143, Sigma) for 2-4 hours at room temperature and washed with the washing buffer twice before use. The non-specific binding was determined by parallel incubation in the presence of 500 nM of non-labeled eotaxin (Cat.#23209, Genzyme Techne). The radioactivities remained on the filter were measured by liquid scintillation counter (TopCount™, Packard) after an addition of 45 μl/well of scintillant (Microscint20, Cat.#6013621, Packard). The inhibition percent at each concentration of compound was calculated, and IC50 values were determined from the inhibition curve. [Determination of IC50 Values of Compounds in Calcium Mobilization Assay] (1) Cell • Human CCR3-transformed K562 cells were used. The human CCR3-transformed K562 cells were maintained in RPMI-1640 supplemented with 10% FCS, 55 μM 2-mercaptoethanol (Cat.#21985-023, Life Technologies), 1 mM sodium pyruvate, 100 units/ml of penicillin G and 100 μg/ml of streptomycin, and 0.4 mg/ml of Geneticin. Before the calcium mobilization assay, cells were pretreated with 5 mM sodium butyrate-containing the culture medium (2×10^5 cells/ml) for 20-24 hours to increase the expression of CCR3. (2) Calcium Mobilization Assay • Butyrate-pretreated cells were loaded with Fluo-3AM (Cat.#F-1242, Molecular Probes) in loading buffer (Hanks' solution Cat.#05906 Nissui, 20 mM HEPES pH 7.6, 0.1% BSA, 1 mM probenecid Cat.#P-8761 Sigma, 1 μM Fluo-3AM, 0.01% pluronic F-127 Cat.#P-6866 Molecular Probes) at a cell density of 1×10^7 cells/ml. Then, cells were washed with calcium assay buffer (Hanks' solution Cat.#05906 Nissui, 20 mM HEPES pH 7.6, 0.1% BSA, 1 mM Probenecid Cat.#P-8761 Sigma). The cell suspension (3.3×10^6 cells/ml) was added into 60 μl/well in the 96-well clear bottom black plate (Cat.#3904, Costar). […]

| Compound | IC50 (Human CCR3) | melting point |
| --- | --- | --- |
| N#Cc1ccc(Oc2cc(Cl)cc(Cl)c2)c(S(=O)(=O)N[C@H]2CN3CCC2CC3)c1 [Example 1-1, N—(R)-(+)-(1-aza-bicyclo[2.2.2]oct-3-yl)-5-cyano-2-(3,5-dichloro-phenoxy)-benzenesulfonamide] | < 100 nM |  |
| CN(C)CCN(CCN1C(=O)CCC1=O)S(=O)(=O)c1cc(C#N)ccc1Oc1cc(Cl)cc(Cl)c1 [Example 1-2, 5-cyano-2-(3,5-dichloro-phenoxy)-N-(2-dimethylamino-ethyl)-N-[2-(2,5-dioxo-pyrrolidin-1-yl)-ethyl]-benzenesulfonamide] | < 100 nM |  |
| N#Cc1ccc(Oc2cc(Cl)cc(Cl)c2)c(S(=O)(=O)N2CCN[C@@H](Cc3c[nH]c4ccccc34)C2)c1 [Example 1-3, 4-(3,5-dichloro-phenoxy)-3-[(3S)-(1H-indol-3-ylmethyl)-piperazine-1-sulfonyl]-benzonitrile] | < 100 nM |  |
| N#Cc1ccc(Oc2cc(Cl)cc(Cl)c2)c(S(=O)(=O)N2CCNCC2Cn2cncn2)c1 (stereo not shown) [Example 1-4, 4-(3,5-dichlorophenoxy)-3-{[2-(1H-1,2,4-triazol-1-ylmethyl)-1-piperazinyl]sulfonyl}benzonitrile hydrochloride] | < 100 nM |  |
| N#Cc1ccc(Oc2cc(Cl)cc(Cl)c2)c(S(=O)(=O)N2CCCCC2)c1 [Example 1-5] | > 500 nM | 171 to 172 °C |
| N#Cc1ccc(Oc2cc(Cl)cc(Cl)c2)c(S(=O)(=O)N2CC3CCN(Cc4ccccc4)C3C2)c1 (stereo not shown) [Example 1-6] | < 100 nM |  |
| CS(=O)(=O)NCC1CN(S(=O)(=O)c2cc(C#N)ccc2Oc2cc(Cl)cc(Cl)c2)CCN1 (stereo not shown) [Example 1-7] | < 100 nM |  |
| CC(=O)NCC1CN(S(=O)(=O)c2cc(C#N)ccc2Oc2cc(Cl)cc(Cl)c2)CCN1 (stereo not shown) [Example 1-8] | < 100 nM |  |
| CS(=O)(=O)NCC1CNCCN1S(=O)(=O)c1cc(C#N)ccc1Oc1cc(Cl)cc(Cl)c1 (stereo not shown) [Example 1-9] | < 100 nM |  |
| CC(=O)NCC1CNCCN1S(=O)(=O)c1cc(C#N)ccc1Oc1cc(Cl)cc(Cl)c1 (stereo not shown) [Example 1-10] | < 100 nM |  |
| N#Cc1ccc(Oc2cc(Cl)cc(Cl)c2)c(S(=O)(=O)N2CCC(N3C[C@H](O)[C@@H](O)C3)CC2)c1 [Example 1-11] | 100 to 500 nM | 137 to 139 °C |
| COC(=O)C1CN(S(=O)(=O)c2cc(C#N)ccc2Oc2cc(Cl)cc(Cl)c2)CCCN1 (stereo not shown) [Example 1-12] | 100 to 500 nM |  |
| COC(=O)[C@@H]1C[C@H](N2CCCC2)CN1S(=O)(=O)c1cc(C#N)ccc1Oc1cc(Cl)cc(Cl)c1 [Example 1-13] | 100 to 500 nM |  |
| N#Cc1ccc(Oc2cc(Cl)cc(Cl)c2)c(S(=O)(=O)N2CC[C@H](NCCO)C2)c1 [Example 1-16] | < 100 nM | 155 to 156 °C |
| COC(=O)C1CNCCCN1S(=O)(=O)c1cc(C#N)ccc1Oc1cc(Cl)cc(Cl)c1 (stereo not shown) [Example 1-22] | < 100 nM |  |
| N#Cc1ccc(Oc2cc(Cl)cc(Cl)c2)c(S(=O)(=O)N2CCNC[C@@H]2Cc2c[nH]c3ccccc23)c1 [Example 1-26] | < 100 nM | 116 to 117 °C |
| N#Cc1ccc(Oc2cc(Cl)cc(Cl)c2)c(S(=O)(=O)N2CCNCC2CN2C(=O)CCC2=O)c1 (stereo not shown) [Example 1-27] | < 100 nM |  |

| Compound | IC50 (Human CCR3) | melting point |
| --- | --- | --- |
| CS(=O)(=O)NCC1CN(S(=O)(=O)c2cc(C#N)ccc2Oc2cc(Cl)cc(Cl)c2)CCCN1 (stereo not shown) [Example 1-28] | < 100 nM |  |
| CS(=O)(=O)NCC1CNCCCN1S(=O)(=O)c1cc(C#N)ccc1Oc1cc(Cl)cc(Cl)c1.Cl (stereo not shown) [Example 1-29] | < 100 nM | 183 to 184 °C |
| CC(=O)c1ccc(Oc2cc(Cl)cc(Cl)c2)c(S(=O)(=O)N2CCNCC2)c1 [Example 1-31] | < 100 nM | 169 to 170 °C |
| N#Cc1ccc(Oc2cc(Cl)cc(Cl)c2)c(S(=O)(=O)N[C@@H]2CN3CCC2CC3)c1 [Example 1-32] | < 100 nM |  |
| N#Cc1ccc(Oc2cc(Cl)cc(Cl)c2)c(S(=O)(=O)N2CCC(N3CCC[C@H]3C(=O)O)CC2)c1 [Example 1-33] | < 100 nM | 224 to 225 °C |
| CC(C)(O)[C@@H]1CCCN1C1CCN(S(=O)(=O)c2cc(C#N)ccc2Oc2cc(Cl)cc(Cl)c2)CC1 [Example 1-34] | < 100 nM | 103 °C |
| N#Cc1ccc(Oc2cc(Cl)cc(Cl)c2)c(S(=O)(=O)N2CCCCC2CN2CCC(O)C2)c1 (stereo not shown) [Example 1-35] | 100 to 500 nM |  |
| N#Cc1ccc(Oc2cc(Cl)cc(Cl)c2)c(S(=O)(=O)N2CCNC(Cn3ncnn3)C2)c1 (stereo not shown) [Example 1-36] | < 100 nM |  |
| Cl.N#Cc1ccc(Oc2cc(Cl)cc(Cl)c2)c(S(=O)(=O)N2CCNC(Cn3cncn3)C2)c1 (stereo not shown) [Example 1-37] | < 100 nM | 184 to 185 °C (dec.) |
| CCN1CCCN(S(=O)(=O)c2cc(C#N)ccc2Oc2cc(Cl)cc(Cl)c2)C(C(=O)OC)C1 (stereo not shown) [Example 1-39] | 100 to 500 nM |  |
| N#Cc1ccc(Oc2cc(Cl)cc(Cl)c2)c(S(=O)(=O)N(CCN2CCCC2)C2CCCC2)c1 [Example 1-42] | 100 to 500 nM |  |
| N#Cc1ccc(Oc2cc(Cl)cc(Cl)c2)c(S(=O)(=O)N2CCNC(CN3C(=O)CCC3=O)C2)c1 (stereo not shown) [Example 1-43] | < 100 nM | 123 to 125 °C |
| N#Cc1ccc(Oc2cc(Cl)cc(Cl)c2)c(S(=O)(=O)N2CCC(N3CCCC3)C(CN3C(=O)CCC3=O)C2)c1 (stereo not shown) [Example 1-44] | < 100 nM | 121 °C |
| N#Cc1ccc(Oc2cc(Cl)cc(Cl)c2)c(S(=O)(=O)N2CCC(N3CCC[C@H]3CO)CC2)c1 [Example 1-45] | < 100 nM | 124 °C |
| N#Cc1ccc(Oc2cc(Cl)cc(Cl)c2)c(S(=O)(=O)N2CCC[C@H]2CN2CCC[C@H]2CO)c1 [Example 1-46] | < 100 nM | 157 °C |
| N#Cc1ccc(Oc2cc(Cl)cc(Cl)c2)c(S(=O)(=O)C2CCNCC2)c1 [Example 2-1, 4-(3,5-Dichloro-phenoxy)-3-(piperidine-4-sulfonyl)-benzonitrile] | > 500 nM |  |
